Ten molecules from ChEMBL document CHEMBL3044930, “Mannich base derivatives of 1,3,4-oxadiazole: synthesis and screening against Entamoeba histolytica” (Med Chem Res, 2013) can be followed below.

The test system of one assay is Entamoeba histolytica. In words: Antiamoebic activity against Entamoeba histolytica HM-1:IMSS after 72 hr by eosin stain-based spectrophotometric analysis. Format: functional, organism-based.
The next assay relates to MCF7. In words: Cytotoxicity against Homo sapiens (human) MCF7 cells after 48 hr by MTT assay. Format: cell-based. Conditions: MCF7, 48 h. (Tetrazolium assays rely on reduction of a dye to a coloured formazan, in cell work by metabolically active cells.)

Molecules are shown by their SMILES.

A word on the IC50: it is the concentration at which inhibition is half-maximal. A high value points to weaker potency in that assay. Turning to `Fc1ccc(N2CCN(Cn3nc(-c4ccncc4)oc3=S)CC2)cc1`, the IC50 in the assay with Entamoeba histolytica is 245 nM; in the assay with MCF7 it was above 250000 nM.

Regarding `COc1ccccc1N1CCN(Cn2nc(-c3ccncc3)oc2=S)CC1`, the figures for the half-inhibitory concentration (IC50) with Entamoeba histolytica and in the assay on MCF7 were 1060 nM and above 250000 nM, respectively.

As for `S=c1oc(-c2ccncc2)nn1CN1CCN(c2ccccc2)CC1`, in the assay with Entamoeba histolytica, 3470 nM corresponded to half-maximal inhibition (IC50).

Take `CCN1CCN(Cn2nc(-c3ccncc3)oc2=S)CC1`: the half-maximal inhibitory concentration (IC50) with Entamoeba histolytica is 327 nM; in the assay on MCF7, above 250000 nM.

Take `S=c1oc(-c2ccncc2)nn1CN1CCN(c2cccc(Cl)c2)CC1`: the concentration for half-maximal inhibition (IC50) in the assay on Entamoeba histolytica was determined as 2570 nM.

In turn, `S=c1oc(-c2ccncc2)nn1CN1CCN(Cc2ccccc2)CC1` showed a half-inhibitory concentration (IC50) in the assay on Entamoeba histolytica of 3400 nM.

In the assay on Entamoeba histolytica, `S=c1oc(-c2ccncc2)nn1CN1CCN(c2ccccn2)CC1` yielded a 50% inhibitory concentration (IC50) of 2820 nM.

Turning to `S=c1oc(-c2ccncc2)nn1CN1CCN(Cc2ccc3c(c2)OCO3)CC1`, it took 3620 nM to reach half-maximal inhibition with Entamoeba histolytica (IC50).

In turn, `FC(F)(F)c1ccccc1N1CCN(Cn2nc(-c3ccncc3)oc2=S)CC1` showed a half-inhibitory concentration (IC50) in the assay on Entamoeba histolytica of 2870 nM.

With `CN1CCN(Cn2nc(-c3ccncc3)oc2=S)CC1`, in the assay with Entamoeba histolytica, the concentration for half-maximal inhibition (IC50) came out at 5110 nM.
